Experimental data from PubChem BioAssay (NCI).
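Test compounds were applied to cells in 96-well plates for 48 hours at 5 doses. TGI is the concentration that stops growth completely.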 Where a SMILES comes first, the peptide text is derived from it. [ ]: non-standard residue; d: D form. The star is where a group is joined. Tyr(3-Br) = N[C@@H](Cc1ccc(O)c(Br)c1)C(=O)O; Boc = CC(C)(C)OC(=O)*

Key:
Assay in all cases: inhibition of tumour cell growth, NCI panel, 48 h
786-0 renal = tested on: 786-0 renal
SF-295 CNS = tested on: SF-295 CNS
MOLT-4 leukemia = tested on: MOLT-4 leukemia
RXF 393 renal = tested on: RXF 393 renal
HS 578T breast = tested on: HS 578T breast
A498 renal = tested on: A498 renal
MCF7 breast = tested on: MCF7 breast
T-47D breast = tested on: T-47D breast
OVCAR-5 ovarian = tested on: OVCAR-5 ovarian
SK-MEL-2 melanoma = tested on: SK-MEL-2 melanoma
MDA-N = tested on: MDA-N
MALME-3M melanoma = tested on: MALME-3M melanoma
SR leukemia = tested on: SR leukemia
SF-539 CNS = tested on: SF-539 CNS
OVCAR-8 ovarian = tested on: OVCAR-8 ovarian
NCI-H460 lung = tested on: NCI-H460 lung
NCI-H23 lung = tested on: NCI-H23 lung
M14 melanoma = tested on: M14 melanoma
KM12 colon = tested on: KM12 colon
HCT-15 colon = tested on: HCT-15 colon
COLO 205 colon = tested on: COLO 205 colon
EKVX NSCLC = tested on: EKVX NSCLC
BT-549 breast = tested on: BT-549 breast
SN12C renal = tested on: SN12C renal
SK-OV-3 ovarian = tested on: SK-OV-3 ovarian
TK-10 renal = tested on: TK-10 renal
U251 CNS = tested on: U251 CNS
SW-620 colon = tested on: SW-620 colon
PC-3 prostate = tested on: PC-3 prostate
UACC-257 melanoma = tested on: UACC-257 melanoma
SK-MEL-5 melanoma = tested on: SK-MEL-5 melanoma
A549 NSCLC = tested on: A549 NSCLC
DU-145 prostate = tested on: DU-145 prostate
UO-31 renal = tested on: UO-31 renal
MDA-MB-435 = tested on: MDA-MB-435
HCC-2998 colon = tested on: HCC-2998 colon
ACHN renal = tested on: ACHN renal
NCI-H226 lung = tested on: NCI-H226 lung
SNB-75 CNS = tested on: SNB-75 CNS
LOX IMVI melanoma = tested on: LOX IMVI melanoma
UACC-62 melanoma = tested on: UACC-62 melanoma
OVCAR-4 ovarian = tested on: OVCAR-4 ovarian
SNB-19 CNS = tested on: SNB-19 CNS
HOP-62 NSCLC = tested on: HOP-62 NSCLC
HOP-92 NSCLC = tested on: HOP-92 NSCLC
HL-60(TB) leukemia = tested on: HL-60(TB) leukemia
HCT-116 colon = tested on: HCT-116 colon
CAKI-1 renal = tested on: CAKI-1 renal
NCI/ADR-RES ovarian = tested on: NCI/ADR-RES ovarian
K-562 leukemia = tested on: K-562 leukemia
HT29 colon = tested on: HT29 colon
RPMI-8226 leukemia = tested on: RPMI-8226 leukemia
SK-MEL-28 melanoma = tested on: SK-MEL-28 melanoma
CCRF-CEM leukemia = tested on: CCRF-CEM leukemia
SF-268 CNS = tested on: SF-268 CNS
IGROV1 ovarian = tested on: IGROV1 ovarian
OVCAR-3 ovarian = tested on: OVCAR-3 ovarian

c1ccc(P(CCP(c2ccccn2)c2ccccn2)c2ccccc2)cc1
TGI (786-0 renal): > 100 µM
TGI (SF-295 CNS): > 56.6 µM
TGI (MOLT-4 leukemia): > 100 µM
TGI (RXF 393 renal): 98 µM
TGI (HS 578T breast): > 100 µM
TGI (A498 renal): > 100 µM
TGI (MCF7 breast): > 100 µM
TGI (T-47D breast): > 100 µM
TGI (OVCAR-5 ovarian): > 100 µM
TGI (SK-MEL-2 melanoma): 66.3 µM
TGI (MDA-N): > 100 µM
TGI (MALME-3M melanoma): > 100 µM
TGI (SR leukemia): > 100 µM
TGI (SF-539 CNS): > 100 µM
TGI (OVCAR-8 ovarian): > 100 µM
TGI (NCI-H460 lung): > 84.9 µM
TGI (NCI-H23 lung): > 100 µM
TGI (M14 melanoma): > 100 µM
TGI (KM12 colon): > 100 µM
TGI (HCT-15 colon): > 100 µM
TGI (COLO 205 colon): 37.8 µM
TGI (EKVX NSCLC): 9 µM
TGI (BT-549 breast): > 100 µM
TGI (SN12C renal): > 100 µM
TGI (SK-OV-3 ovarian): > 100 µM
TGI (TK-10 renal): > 100 µM
TGI (U251 CNS): > 100 µM
TGI (SW-620 colon): > 100 µM
TGI (PC-3 prostate): 72.6 µM
TGI (UACC-257 melanoma): > 100 µM
TGI (SK-MEL-5 melanoma): > 100 µM
TGI (A549 NSCLC): > 100 µM
TGI (DU-145 prostate): > 100 µM
TGI (UO-31 renal): > 100 µM
TGI (MDA-MB-435): > 100 µM
TGI (HCC-2998 colon): > 100 µM
TGI (ACHN renal): > 100 µM
TGI (NCI-H226 lung): > 100 µM
TGI (SNB-75 CNS): 54 µM
TGI (LOX IMVI melanoma): > 100 µM
TGI (UACC-62 melanoma): > 100 µM
TGI (OVCAR-4 ovarian): > 100 µM
TGI (SNB-19 CNS): > 100 µM
TGI (HOP-62 NSCLC): > 100 µM
TGI (HOP-92 NSCLC): > 69.9 µM
TGI (HL-60(TB) leukemia): 78.2 µM
TGI (HCT-116 colon): > 100 µM
TGI (CAKI-1 renal): > 100 µM
TGI (NCI/ADR-RES ovarian): > 100 µM
TGI (K-562 leukemia): > 100 µM
TGI (HT29 colon): > 100 µM
TGI (RPMI-8226 leukemia): 40.6 µM
TGI (SK-MEL-28 melanoma): > 100 µM

COC(=O)[C@H](Cc1ccc(O)c(Br)c1)NC(=O)[C@H](Cc1ccc(O)cc1)NC(=O)OC(C)(C)C (Boc-Tyr-[Tyr(3-Br)]-OMe)
TGI (786-0 renal): > 100 µM
TGI (SF-295 CNS): > 100 µM
TGI (MOLT-4 leukemia): > 100 µM
TGI (HS 578T breast): > 100 µM
TGI (CCRF-CEM leukemia): 51.2 µM
TGI (A498 renal): > 100 µM
TGI (SF-268 CNS): > 100 µM
TGI (MCF7 breast): > 100 µM
TGI (T-47D breast): 44.4 µM
TGI (OVCAR-5 ovarian): > 100 µM
TGI (SK-MEL-2 melanoma): > 100 µM
TGI (MDA-N): > 100 µM
TGI (MALME-3M melanoma): 57.2 µM
TGI (SR leukemia): > 100 µM
TGI (SF-539 CNS): 94.9 µM
TGI (OVCAR-8 ovarian): 37.5 µM
TGI (NCI-H460 lung): 37.7 µM
TGI (NCI-H23 lung): 71.5 µM
TGI (M14 melanoma): > 100 µM
TGI (KM12 colon): > 100 µM
TGI (HCT-15 colon): 44 µM
TGI (COLO 205 colon): > 100 µM
TGI (EKVX NSCLC): > 100 µM
TGI (BT-549 breast): 98.1 µM
TGI (SN12C renal): > 100 µM
TGI (SK-OV-3 ovarian): > 100 µM
TGI (TK-10 renal): > 100 µM
TGI (SW-620 colon): > 100 µM
TGI (PC-3 prostate): > 100 µM
TGI (UACC-257 melanoma): > 100 µM
TGI (A549 NSCLC): > 100 µM
TGI (DU-145 prostate): > 100 µM
TGI (IGROV1 ovarian): > 100 µM
TGI (UO-31 renal): > 100 µM
TGI (MDA-MB-435): 53.5 µM
TGI (HCC-2998 colon): > 100 µM
TGI (ACHN renal): > 100 µM
TGI (NCI-H226 lung): > 100 µM
TGI (SNB-75 CNS): > 100 µM
TGI (LOX IMVI melanoma): 42.6 µM
TGI (OVCAR-4 ovarian): > 100 µM
TGI (SNB-19 CNS): > 100 µM
TGI (HOP-62 NSCLC): > 100 µM
TGI (HOP-92 NSCLC): 93 µM
TGI (OVCAR-3 ovarian): 38.3 µM
TGI (HL-60(TB) leukemia): > 100 µM
TGI (HCT-116 colon): > 100 µM
TGI (CAKI-1 renal): > 100 µM
TGI (NCI/ADR-RES ovarian): > 100 µM
TGI (K-562 leukemia): > 100 µM
TGI (HT29 colon): > 100 µM
TGI (RPMI-8226 leukemia): 91 µM
TGI (SK-MEL-28 melanoma): > 100 µM
